Test results reported in ChEMBL document CHEMBL1157956, “Aegicerin, the first oleanane triterpene with wide-ranging antimycobacterial activity, isolated from Clavija procera” (J Nat Prod, 2006).
≈ marks a conversion by molar mass, not a printed value.

Assays:
[1] = system: Mycobacterium tuberculosis; test: Antimicrobial activity against multidrug-resistant Mycobacterium tuberculosis isolate by alamar blue assay; assay type: functional
[2] = system: Mycobacterium tuberculosis; test: Antimicrobial activity against isoniazid-resistant Mycobacterium tuberculosis isolate by alamar blue assay; assay type: functional

Structure (SMILES): CC1(C)CC[C@]23CO[C@@]4(CC[C@@H]5[C@@]6(C)CC[C@H](O)C(C)(C)[C@@H]6CC[C@@]5(C)[C@]4(C)CC2=O)[C@@H]3C1 [AEGICERIN]
- MIC [1]: 1.6 µg/mL (≈ 3.5 µM)
- MIC [2]: 1.6 µg/mL (≈ 3.5 µM)

Structure (SMILES): NNC(=O)c1ccncc1 [ISONIAZID]
- MIC [1]: > 4 µg/mL
- MIC [2]: 2 µg/mL (≈ 14.6 µM)

Structure (SMILES): CC1(C)CC[C@]23CO[C@@]4(CC[C@@H]5[C@@]6(C)CC[C@H](O)C(C)(C)[C@@H]6CC[C@@]5(C)[C@]4(C)C[C@H]2O)[C@@H]3C1 [PROTOPRIMULAGENIN A]
- MIC [1]: 200 µg/mL (≈ 436 µM)
- MIC [2]: 200 µg/mL (≈ 436 µM)

Structure (SMILES): CO[C@H]1/C=C/O[C@@]2(C)Oc3c(C)c(O)c4c(O)c(c(/C=N/N5CCN(C)CC5)c(O)c4c3C2=O)NC(=O)/C(C)=C\C=C\[C@H](C)[C@H](O)[C@@H](C)[C@@H](O)[C@@H](C)[C@H](OC(C)=O)[C@@H]1C [RIFAMPIN]
- MIC [1]: > 2 µg/mL
- MIC [2]: 0.063 µg/mL (≈ 0.0766 µM)
